# Experimental data reported in ChEMBL document CHEMBL1795311, “Synthesis, antiproliferative activity, and mechanism of action of a series of 2-{[(2E)-3-phenylprop-2-enoyl]amino}benzamides” (Eur J Med Chem, 2011).
# Columns and labels:
# K562 [1] = experiment: Antiproliferative activity against human K562 cells at 10 uM after 48 hrs by trypan blue assay; assay type: functional; conditions: K562, 48 h, read-out: GI
# K562 [2] = experiment: Growth inhibition of human K562 cells after 48 hrs by trypan blue assay; assay type: functional, cell-based; conditions: K562, 48 h
IC50 (K562 [2]),Structure (SMILES),inhibition of growth at 10 µM (K562 [1])
10 µM,NC(=O)c1cc(Cl)ccc1NC(=O)/C=C/c1ccccc1Br,49%
> 10 µM,NC(=O)c1cc(Br)ccc1NC(=O)/C=C/c1ccccc1Br,46.2%
